Source: patent US20090221615A1, “COMBINATION ANTI-CANCER AGENTS” (priority 2008, published 2009)

Assays:
[1] = Body weight change in the H460 xenograft study; format: in vivo, CD-1 nude mice; settings: 28-day period; Pemetrexed i.p. 200 mg/kg, Lucanthone oral 80 mg/kg, once every 4 days x7; vehicles −2.9%
Procedure: (§1) Methods: Groups of CD-1 nude mice were xenografted subcutaneously with human H460 non-small cell lung carcinoma cells. Treatments were initiated when tumor growth reached approximately 130 mm^3. Treatments were administered 7 times at frequency of once every 4 days and included vehicles, Pemetrexed given intraperitoneally at 200 mg/kg, Lucanthone given orally at 80 mg/kg, and the combinations of Pemetrexed and Lucanthone at the same doses. The tumor growths and body weight change were followed for 28 days.

[2] = test system: human H460 non-small cell lung carcinoma cells; test: H460 non-small cell lung carcinoma xenograft tumor growth in CD-1 nude mice; format: in vivo; settings: 28 days, 7 treatments once every 4 days, Pemetrexed i.p. 200 mg/kg, Lucanthone oral 80 mg/kg
Procedure: as §1

Nc1nc2[nH]cc(CCc3ccc(C(=O)N[C@@H](CCC(=O)O)C(=O)O)cc3)c2c(=O)[nH]1 [Pemetrexed, N-[4-[2-(2-amino-4,7-dihydro-4-oxo-1H-pyrrolo[2,3-d]pyrimidin-5-yl)ethyl]-benzoyl]-L-glutamic acid]
body weight changes excluding the tumor weights [1]: −0.9%
growth inhibition compared to the vehicle-treated group [2]: 33%
fold of increases of the tumor volume ([2]; vehicles 42): 28 fold
